Measurements from patent publication US12226424B2, “Target protein degradation compounds, their anti-tumor use, their intermediates and use of intermediates” (ShanghaiTech University, priority 2018, dated 2025).

Tested on: CDK4/6 protein
Experiment: Western-blot determination of CDK4/6 protein degradation (DC50) in T-47D cells
Format: cell-based, human
Conditions: 24 h drug treatment, read-out: DC50(nM)/T-47D cell line

`CN(C)C(=O)c1cc2cnc(Nc3ccc(N4CCN(C(=O)CCCCCSc5cccc6c5C(=O)N(C5CCC(=O)NC5=O)C6=O)CC4)cn3)nc2n1C1CCCC1` (centres unmarked) [SIAIS219104, 7-cyclopentyl-2-((5-(4-(6-((2-(2,6-dioxopiperidin-3-yl)-1,3-dioxoisoindolin-4-yl)thio)hexanoyl)piperazin-1-yl)pyridin-2-yl)amino)-N,N-dimethyl-7H-pyrrolo[2,3-d]pyrimidine-6-carboxamide] and `CN(C)C(=O)c1cc2cnc(Nc3ccc(N4CCN(C(=O)COCCOCCOCCOCCSc5cccc6c5CN(C5CCC(=O)NC5=O)C6=O)CC4)cn3)nc2n1C1CCCC1` (centres unmarked) [SIAIS219109, 7-cyclopentyl-2-((5-(4-(14-((2-(2,6-dioxopiperidin-3-yl)-1-oxoisoindolin-4-yl)thio)-3,6,9,12-tetraoxatetradecanoyl)piperazin-1-yl)pyridin-2-yl)amino)-N,N-dimethyl-7H-pyrrolo[2,3-d]pyrimidine-6-carboxamide] fall in the same range of DC50: 1 to 10 nM for the first, 1 to 10 nM for the second.

Molecule `CC(=O)c1c(C)c2cnc(Nc3ccc(N4CCN(C(=O)COCCOCCOCCSc5cccc6c5C(=O)N(C5CCC(=O)NC5=O)C6=O)CC4)cn3)nc2n(C2CCCC2)c1=O` (centres unmarked) [SIAIS219060, 4-((2-(2-(2-(2-(4-(6-((6-acetyl-8-cyclopentyl-5-methyl-7-oxo-7,8-dihydropyrido[2,3-d]pyrimidin-2-yl)amino)pyridin-3-yl)piperazin-1-yl)-2-oxoethoxy)ethoxy)ethoxy)ethyl)thio)-2-(2,6-dioxopiperidin-3-yl)isoindoline-1,3-dione] has a DC50 of 1 to 10 nM.

Tested on: SR cells
Experiment: Half inhibitory concentration (IC50) on ALK-positive SR cell proliferation (CCK-8)
Format: cell-based
Conditions: Homo sapiens; SR cells, 72 h, CCK-8; read-out: IC50 on proliferation of ALK-positive cells SR
Protocol: ALK-positive SR cells (human large cell immunoblastic lymphoma) were purchased from the American Type Culture Collection (ATCC); H3122 cells (human non-small cell lung cancer) were from the Shanghai University of Science and Technology Lin Haifan's research group.
The cells used in this present disclosure were cultured in a 37° C. incubator containing 5% CO2.
SR cells were seeded in 100 μL RPMI1640 complete medium at a density of 10,000 cells/well. 100 μL of the inoculated cells were treated with 0.5 μL diluted PROTAD compound of the present disclosure to be tested at 10 successively decreasing concentrations (starting at the highest concentration of 10 μM; 5-fold serial dilutions) After the cells were treated with the drug for 72 h, cell viability was determined according to the CCK-8 reagent operating instructions. The negative control was DMSO, and the positive control was a commercial inhibitor. After CCK-8 treatment for 2 h, the value of O.D.450 was measured using a microplate reader.

Work on `COc1cc(N2CCC(N3CCN(C)CC3)CC2)ccc1Nc1ncc(Cl)c(Nc2ccccc2P(C)(C)=O)n1` [Brigatinib, reference compound] yielded an IC50 of 10.6 nM.

Same assay, conditions: Homo sapiens; SR cells, 72 h drug treatment, CCK-8; read-out: IC50 (nM)/ SR cell line

In order of rising IC50:
1. CCc1cc2c(cc1N1CCC(N3CCN(C(=O)CSc4cccc5c4CN(C4CCC(=O)NC4=O)C5=O)CC3)CC1)C(C)(C)c1[nH]c3cc(C#N)ccc3c1C2=O (centres unmarked) [SIAIS262096, 8-(4-(4-(2-((2-(2,6-dioxopiperidin-3-yl)-1-oxoisoindolin-4-yl)thio)acetyl)piperazin-1-yl)piperidin-1-yl)-9-ethyl-6,6-dimethyl-11-oxo-6,11-dihydro-5H-benzo[b]carbazole-3-carbonitrile]  0.22 ± 0.11 nM
2. CCc1cc2c(cc1N1CCC(N3CCN(C(=O)CCCSc4cccc5c4CN(C4CCC(=O)NC4=O)C5=O)CC3)CC1)C(C)(C)c1[nH]c3cc(C#N)ccc3c1C2=O (centres unmarked) [SIAIS262098, 8-(4-(4-(4-((2-(2,6-dioxopiperidin-3-yl)-1-oxoisoindolin-4-yl)thio)butanoyl)piperazin-1-yl)piperidin-1-yl)-9-ethyl-6,6-dimethyl-11-oxo-6,11-dihydro-5H-benzo[b]carbazole-3-carbonitrile]  0.29 ± 0.21 nM
3. COc1cc(N2CCC(NC(=O)CCCCSc3cccc4c3CN(C3CCC(=O)NC3=O)C4=O)CC2)ccc1Nc1ncc(Cl)c(Nc2ccccc2P(C)(C)=O)n1 (centres unmarked) [SIAIS219136, N-(1-(4-((5-chloro-4-((2-(dimethylphosphoryl)phenyl)amino)pyrimidin-2-yl)amino)-3-methoxyphenyl)piperidin-4-yl)-5-((2-(2,6-dioxopiperidin-3-yl)-1-oxoisoindolin-4-yl)thio)pentanamide]  0.43 ± 0.09 nM
4. CCc1cc2c(cc1N1CCC(N3CCN(C(=O)COCCOCCOCCOCCOCCSc4cccc5c4CN(C4CCC(=O)NC4=O)C5=O)CC3)CC1)C(C)(C)c1[nH]c3cc(C#N)ccc3c1C2=O (centres unmarked) [SIAIS249070, 8-(4-(4-(17-((2-(2,6-dioxopiperidin-3-yl)-1-oxoisoindolin-4-yl)thio)-3,6,9,12,15-pentaoxaheptadecanoyl)piperazin-1-yl)piperidin-1-yl)-9-ethyl-6,6-dimethyl-11-oxo-6,11-dihydro-5H-benzo[b]carbazole-3-carbonitrile]  0.43 ± 0.11 nM
5. COc1cc(N2CCC(NC(=O)CCCCCSc3cccc4c3CN(C3CCC(=O)NC3=O)C4=O)CC2)ccc1Nc1ncc(Cl)c(Nc2ccccc2P(C)(C)=O)n1 (centres unmarked) [SIAIS219137, N-(1-(4-((5-chloro-4-((2-(dimethylphosphoryl)phenyl)amino)pyrimidin-2-yl)amino)-3-methoxyphenyl)piperidin-4-yl)-6-((2-(2,6-dioxopiperidin-3-yl)-1-oxoisoindolin-4-yl)thio)hexanamide]  0.48 ± 0.05 nM
6. CCc1cc2c(cc1N1CCC(N3CCN(C(=O)COCCOCCOCCOCCSc4cccc5c4CN(C4CCC(=O)NC4=O)C5=O)CC3)CC1)C(C)(C)c1[nH]c3cc(C#N)ccc3c1C2=O (centres unmarked) [SIAIS249069, 8-(4-(4-(14-((2-(2,6-dioxopiperidin-3-yl)-1-oxoisoindolin-4-yl)thio)-3,6,9,12-tetraoxatetradecanoyl)piperazin-1-yl)piperidin-1-yl)-9-ethyl-6,6-dimethyl-11-oxo-6,11-dihydro-5H-benzo[b]carbazole-3-carbonitrile]  0.81 ± 0.28 nM
7. CCc1cc2c(cc1N1CCC(N3CCN(C(=O)CCCCSc4cccc5c4CN(C4CCC(=O)NC4=O)C5=O)CC3)CC1)C(C)(C)c1[nH]c3cc(C#N)ccc3c1C2=O (centres unmarked) [SIAIS262099, 8-(4-(4-(5-((2-(2,6-dioxopiperidin-3-yl)-1-oxoisoindolin-4-yl)thio)pentanoyl)piperazin-1-yl)piperidin-1-yl)-9-ethyl-6,6-dimethyl-11-oxo-6,11-dihydro-5H-benzo[b]carbazole-3-carbonitrile]  0.93 ± 1.11 nM
8. CCc1cc2c(cc1N1CCC(NC(=O)COCCSc3cccc4c3CN(C3CCC(=O)NC3=O)C4=O)CC1)C(C)(C)c1[nH]c3cc(C#N)ccc3c1C2=O (centres unmarked) [SIAIS262163, N-(1-(3-cyano-9-ethyl-6,6-dimethyl-11-oxo-6,11-dihydro-5H-benzo[b]carbazol-8-yl)piperidin-4-yl)-2-(2-((2-(2,6-dioxopiperidin-3-yl)-1-oxoisoindolin-4-yl)thio)ethoxy)acetamide]  1.6 nM
9. COc1cc(N2CCC(N3CCN(C)CC3)CC2)ccc1Nc1ncc(Cl)c(Nc2ccccc2P(C)(C)=O)n1 [Brigatinib, reference compound]  2.1 ± 1.2 nM
10. COc1cc(N2CCC(NC(=O)CCSc3cccc4c3CN(C3CCC(=O)NC3=O)C4=O)CC2)ccc1Nc1ncc(Cl)c(Nc2ccccc2P(C)(C)=O)n1 (centres unmarked) [SIAIS219134, N-(1-(4-((5-chloro-4-((2-(dimethylphosphoryl)phenyl)amino)pyrimidin-2-yl)amino)-3-methoxyphenyl)piperidin-4-yl)-3-((2-(2,6-dioxopiperidin-3-yl)-1-oxoisoindolin-4-yl)thio)propanamide]  2.7 ± 0.8 nM
11. COc1cc(N2CCC(NC(=O)CSc3cccc4c3CN(C3CCC(=O)NC3=O)C4=O)CC2)ccc1Nc1ncc(Cl)c(Nc2ccccc2P(C)(C)=O)n1 (centres unmarked) [SIAIS219133, N-(1-(4-((5-chloro-4-((2-(dimethylphosphoryl)phenyl)amino)pyrimidin-2-yl)amino)-3-methoxyphenyl)piperidin-4-yl)-2-((2-(2,6-dioxopiperidin-3-yl)-1-oxoisoindolin-4-yl)thio)acetamide]  2.9 ± 0.1 nM
12. CCc1cc2c(cc1N1CCC(N3CCN(C(=O)CCCCCCSc4cccc5c4CN(C4CCC(=O)NC4=O)C5=O)CC3)CC1)C(C)(C)c1[nH]c3cc(C#N)ccc3c1C2=O (centres unmarked) [SIAIS262101, 8-(4-(4-(7-((2-(2,6-dioxopiperidin-3-yl)-1-oxoisoindolin-4-yl)thio)heptanoyl)piperazin-1-yl)piperidin-1-yl)-9-ethyl-6,6-dimethyl-11-oxo-6,11-dihydro-5H-benzo[b]carbazole-3-carbonitrile]  2.94 ± 3.7 nM
13. CCc1cc2c(cc1N1CCC(N3CCN(C(=O)CCSc4cccc5c4CN(C4CCC(=O)NC4=O)C5=O)CC3)CC1)C(C)(C)c1[nH]c3cc(C#N)ccc3c1C2=O (centres unmarked) [SIAIS262097, 8-(4-(4-(3-((2-(2,6-dioxopiperidin-3-yl)-1-oxoisoindolin-4-yl)thio)propanoyl)piperazin-1-yl)piperidin-1-yl)-9-ethyl-6,6-dimethyl-11-oxo-6,11-dihydro-5H-benzo[b]carbazole-3-carbonitrile]  3.89 ± 0.78 nM
14. COc1cc(N2CCC(NC(=O)COCCOCCOCCSc3cccc4c3CN(C3CCC(=O)NC3=O)C4=O)CC2)ccc1Nc1ncc(Cl)c(Nc2ccccc2P(C)(C)=O)n1 (centres unmarked) [SIAIS219141, N-(1-(4-((5-chloro-4-((2-(dimethylphosphoryl)phenyl)amino)pyrimidin-2-yl)amino)-3-methoxyphenyl)piperidin-4-yl)-2-(2-(2-(2-((2-(2,6-dioxopiperidin-3-yl)-1-oxoisoindolin-4-yl)thio)ethoxy)ethoxy)ethoxy)acetamide]  5 ± 0.71 nM
15. COc1cc(N2CCC(NC(=O)COCCOCCOCCOCCSc3cccc4c3CN(C3CCC(=O)NC3=O)C4=O)CC2)ccc1Nc1ncc(Cl)c(Nc2ccccc2P(C)(C)=O)n1 (centres unmarked) [SIAIS219142, N-(1-(4-((5-chloro-4-((2-(dimethylphosphoryl)phenyl)amino)pyrimidin-2-yl)amino)-3-methoxyphenyl)piperidin-4-yl)-14-((2-(2,6-dioxopiperidin-3-yl)-1-oxoisoindolin-4-yl)thio)-3,6,9,12-tetraoxatetradecan-1-amide]  7 ± 1 nM
16. CCc1cc2c(cc1N1CCC(NC(=O)CCCCCSc3cccc4c3C(=O)N(C3CCC(=O)NC3=O)C4=O)CC1)C(C)(C)c1[nH]c3cc(C#N)ccc3c1C2=O (centres unmarked) [SIAIS219014, N-(1-(3-cyano-9-ethyl-6,6-dimethyl-11-oxo-6,11-dihydro-5H-benzo[b]carbazol-8-yl)piperidin-4-yl)-6-((2-(2,6-dioxopiperidin-3-yl)-1,3-dioxoisoindolin-4-yl)thio)hexanamide]  101 nM
